Test results taken from US20250146007A1 (priority 2022, published 2025).
“Also recorded” adds a separate entry of the source.

Key:
C. acnes tdk knock-out = type: cell-based, Cutibacterium acnes
[1] = system: Neutrophil gelatinase-associated lipocalin 2 (NGAL) protein; settings: human, in vivo; cited from earlier work
PCi-SEB_Cau sebocytes = type: cell-based, human

Structure (SMILES): O=c1[nH]c(=O)n([C@H]2C[C@H](O)[C@@H](CO)O2)cc1F [FUDR, 5-fluoro-2′-deoxyuridine]
- growth of tdk knock-out (knock-in) strain on FUDR plates (C. acnes tdk knock-out): could grow; also recorded: no growth inhibiting effect

Structure (SMILES): CC[C@H]1OC(=O)[C@H](C)[C@@H](O[C@H]2C[C@@](C)(OC)[C@@H](O)[C@H](C)O2)[C@H](C)[C@@H](O[C@@H]2O[C@H](C)C[C@H](N(C)C)[C@H]2O)[C@](C)(O)C[C@@H](C)C(=O)[C@H](C)[C@@H](O)[C@]1(C)O [ery, erythromycin]
- growth of tdk knock-out (knock-in, ermE) strain on erythromycin plates (C. acnes tdk knock-out): could grow

Structure (SMILES): CC1=C(/C=C/C(C)=C/C=C/C(C)=C\C(=O)O)C(C)(C)CCC1 [isotretinoin, 13-cis retinoic acid]
- increase in NGAL protein in treated patients [1]: 7 fold
- decrease in sebum production compared to AA treated cells (PCi-SEB_Cau sebocytes): 1.8 fold
